Consider three compounds from US4283422A (priority 1979, dated 1981).

Where a name gives a salt, the structure may show the parent alone. Read-outs that look alike come from different tables or passages of the source. Some results are limits rather than exact numbers.

The nature of data set [1]: in vitro. The settings on record: dog, mdck.
Data set [2] deals with MDCK cells. To be noted: 3 days, microscopic CTE.
Data set [3] relates to Influenza A/PR/3/34 (HO, Nl) strain. Briefly: microbe, parasite or virus in culture. The settings on record: for HA-titer / MIC: MDCK cells; for HA-titer: 34° C., 3 days, control 256; for MIC: 72 h, Influenza virus; for inhibitory effects on Influenza virus growth: comparison of the two compounds, in words. The data set is classed as cell-based.
The subject of data set [4] is Newcastle disease virus. To be noted: Koji Aigami et al., J. of Medicinal Chemistry, vol. 19, 536 (1976); cited from earlier work.

Take `CN(C)C12CCCC3CC(CCC31)C2` (stereo not shown): the MNTC at 72 h in data set [1] amounted to 25 µg/mL. Also, the Cytotoxicity entry was “(±) (CTE is less than 10% of cells.)” in data set [2] (25.0 mcg/ml); “(+) (CTE is more than 10% and less than 50% of cells.)” in data set [2] (50.0 mcg/ml). Also, the HA-titer in data set [3] (12.5 mcg/ml) was 64; in data set [3] (25.0 mcg/ml), 64; in data set [3] (50.0 mcg/ml) it was less than 4. Also, in data set [3], the MIC was less than 12.5 µg/mL. In addition, the “inhibitory effects on Influenza virus growth” value in data set [3] was “equivalent inhibitory effects on Influenza virus growth”.
In the case of `NC12CCCC3CC(CCC31)C2` (stereo not shown) [3-amino-4-homoisotwistane hydrochloride], in data set [4], the “antiviral activity against Newcastle disease virus” value is listed as “have antiviral activity against Newcastle disease virus”.
In data set [1], `NC12CC3CC(CC(C3)C1)C2` [Amantadine hydrochloride] registered an MNTC at 72 h of 12.5 µg/mL. Moreover, the Cytotoxicity result in data set [2] (12.5 mcg/ml) was “(±) (CTE is less than 10% of cells.)”; in data set [2] (25.0 mcg/ml), “(+) (CTE is more than 10% and less than 50% of cells.)”. Moreover, the figures for the HA-titer in data set [3] (12.5 mcg/ml) and in data set [3] (25.0 mcg/ml) were 64 and less than 4, respectively. In addition, in data set [3], the MIC was less than 12.5 µg/mL. In data set [3], the “inhibitory effects on Influenza virus growth” value is reported as “equivalent inhibitory effects on Influenza virus growth”.
